Here are results for 1 molecule from ChEMBL document CHEMBL4422615, “Novel non-xanthine antagonist of the A2B adenosine receptor: From HTS hit to lead structure” (Eur J Med Chem, 2019).

Converted amounts (≈) assume the structure as drawn. The source made the active and inactive calls. The calls are words filed in the database; no cut-off is given here. Where only a bound is given, the exact number is not on record here.

The species entered for one series is Homo sapiens. The series can be described thus: (§1) Anti-inflammatory activity in human LL29 cells assessed as reduction in NECA-induced IL6 level after 24 hrs by ELISA. It counts as functional, cell-based. In general terms: ELISA stands for enzyme-linked immunosorbent assay.
The nature of series [1]: as §1. It counts as functional, cell-based.
For another series, the target named is Adenosine receptor A2a (Homo sapiens, UniProt P29274). Put plainly: Displacement of [3H]CGS21680 from human A2A adenosine receptor expressed in HEK293 cell membranes after 120 mins by radioligand displacement assay. (In general: In a radioligand displacement assay an active substance lowers the binding of a labelled ligand.)
A short description of series [2]: Aqueous solubility of the compound in phosphate buffer at pH 6.5 after 24 hrs by LC/MS/MS analysis. It is filed as physicochemical.
The test system of series [3] is Mus musculus. The series can be described thus: Antifibrotic activity in silica-induced C57BL/6J mouse pulmonary fibrosis model assessed as reduction in total number of cells in BALF at 100 to 500 mg/kg, bid administered via gavage treated from day 1 until day 7 after silica application. It is filed as functional, organism-based.
Series [4] has as its system Mus musculus. Put plainly: Antifibrotic activity in silica-induced C57BL/6J mouse pulmonary fibrosis model assessed as reduction in lung weight at 100 to 500 mg/kg, bid administered via gavage treated from day 1 until day 7 after silica application. It is filed as functional, organism-based.
The nature of series [5]: Half life in mouse at 0.3 mg/kg, iv administered as bolus dose by HPLC-MS/MS analysis. It counts as ADME, organism-based. The conditions noted are these: in vivo.
Series [6] can be described thus: Intrinsic clearance in rat hepatocytes by MS/MS analysis. It is filed as ADME, cell-based, Hepatocyte.
A short description of series [7]: Dose normalized Cmax in dog at 1 mg/kg, po for 15 mins by HPLC-MS/MS analysis. It counts as ADME, organism-based, Canis lupus familiaris. Particulars: in vivo, 0.25 h.
For series [8], the system named is Mus musculus. The series can be described thus: Antifibrotic activity in silica-induced C57BL/6J mouse pulmonary fibrosis model assessed as reduction in TGF-beta level in lung tissue homogenate at 100 to 500 mg/kg, bid administered via gavage treated from day 1 until day 7 after silica application by ELISA. It is filed as functional, organism-based.
Series [9] is described as follows: Dose normalized Cmax in mouse at 1 mg/kg, iv administered as bolus dose by HPLC-MS/MS analysis. It counts as ADME, organism-based. The conditions noted are these: in vivo.
Series [10] has as its target T1, Adenosine receptor A2b (Homo sapiens, UniProt P29275).
T1 sequence (P29275 whole entry): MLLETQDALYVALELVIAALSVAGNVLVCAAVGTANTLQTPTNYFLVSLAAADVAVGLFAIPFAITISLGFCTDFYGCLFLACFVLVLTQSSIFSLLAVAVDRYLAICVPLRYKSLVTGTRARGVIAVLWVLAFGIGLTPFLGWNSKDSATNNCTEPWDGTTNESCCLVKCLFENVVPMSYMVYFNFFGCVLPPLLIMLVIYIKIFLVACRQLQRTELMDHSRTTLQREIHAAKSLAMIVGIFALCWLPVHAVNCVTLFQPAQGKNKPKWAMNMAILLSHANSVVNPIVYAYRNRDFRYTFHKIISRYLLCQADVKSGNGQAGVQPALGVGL
Put plainly: Displacement of [3H]DPCPX from human A2B adenosine receptor expressed in HEK293 cell membranes after 60 mins by radioligand displacement assay.

Series [11] can be described thus: Half life in rat at 1 mg/kg, po for 15 mins by HPLC-MS/MS analysis. Particulars: in vivo. It counts as ADME, organism-based.
For series [12], the target named is T2, Adenosine receptor A2b (Mus musculus, UniProt Q60614).
T2 sequence (Q60614 whole entry): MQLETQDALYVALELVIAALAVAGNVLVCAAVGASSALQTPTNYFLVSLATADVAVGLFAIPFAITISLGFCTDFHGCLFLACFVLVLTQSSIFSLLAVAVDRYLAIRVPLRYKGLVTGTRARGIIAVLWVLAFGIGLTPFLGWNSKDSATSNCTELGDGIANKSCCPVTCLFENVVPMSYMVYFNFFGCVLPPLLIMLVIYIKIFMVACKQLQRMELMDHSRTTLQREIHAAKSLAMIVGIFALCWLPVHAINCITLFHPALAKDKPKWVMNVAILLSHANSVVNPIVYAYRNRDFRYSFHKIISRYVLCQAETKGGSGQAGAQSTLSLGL
Put plainly: Antagonist activity at recombinant mouse A2B adenosine receptor expressed in CHO cells after 3 to 4 hrs by luciferase reporter gene assay. It is filed as cell-based. On the technique in general: A reporter such as luciferase makes a cellular process visible.

Series [13] is described as follows: MRT in rat at 1 mg/kg, po for 15 mins by HPLC-MS/MS analysis. The conditions noted are these: in vivo. It counts as ADME, organism-based.

Adenosine receptor A2a, sequence (P29274 whole entry): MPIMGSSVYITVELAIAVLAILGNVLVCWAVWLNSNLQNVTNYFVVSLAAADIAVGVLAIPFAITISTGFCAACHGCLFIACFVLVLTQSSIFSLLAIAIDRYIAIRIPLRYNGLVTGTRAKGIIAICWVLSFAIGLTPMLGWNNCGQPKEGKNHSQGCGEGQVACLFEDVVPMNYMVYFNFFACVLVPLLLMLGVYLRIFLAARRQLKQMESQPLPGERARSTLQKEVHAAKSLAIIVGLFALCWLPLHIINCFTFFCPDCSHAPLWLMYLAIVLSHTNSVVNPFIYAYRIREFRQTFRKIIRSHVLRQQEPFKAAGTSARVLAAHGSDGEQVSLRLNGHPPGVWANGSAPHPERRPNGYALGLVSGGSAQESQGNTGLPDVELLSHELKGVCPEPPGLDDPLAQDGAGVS

On to `CCn1c(=O)c2c(C)c(C(=O)N3CCC(O)CC3)sc2n(CCC(F)(F)F)c1=O`, for which the Activity entry in the series listed under Homo sapiens is “Dose-dependent effect”. Besides, the IC50 (in general, the concentration that inhibits the measured activity by half) in series [1] was 185 nM; at Adenosine receptor A2b [10], 59 to 66 nM; at Adenosine receptor A2b [12] it was 400 nM. In addition, the Ki (as a rule, a dissociation constant, usually derived from enzyme kinetics or from competition with a known ligand) at Adenosine receptor A2a was more than 1000 nM. Besides, in series [2], the solubility – broadly, the dissolved amount per volume that the medium holds – at 24 h stood at 410 µg/mL (≈ 946 µM). For the same molecule, the result in the series with Mus musculus [3] was inactive. In addition, the outcome with Mus musculus [4] and in the series with Mus musculus [8] was Active. The figures for the half-life in [5] and in series [11] were 1.2 h and 1.4 h, respectively. The CLhep predicted in series [6] is 23.3 mL/min/kg. Also, the values for the Cmax/dose in series [7] and in [9] were 0.61 kg/L and 1.2 kg/L, respectively. For the same molecule, in series [13], the MRT (usually a mean duration of stay, worked out from the concentration-time curve) came out at 2 h.
